# US20220242851A1, “CRYSTAL FORM AND SALT OF QUINAZOLINE COMPOUND AND PREPARATION METHOD THEREOF” (SHENZHEN JINRUI FOUNDATION BIOTECH CO., LTD, priority 2019, published 2022)
# How the values were obtained:
# NCI-N87 cell = assay: Inhibition of cell proliferation, Cell-Titer-Glo, NCI-N87; type: cell-based, human; conditions: conclusion
# Text: Purpose of the assay: the inhibitory activity of the assay compounds on cell proliferation was detected. Principle of the assay: the luciferase in a Cell-Titer-Glo reagent produces oxidized luciferin with luciferin, oxygen and ATP as reaction substrates, and releases energy in the form of light. Since the luciferase reaction requires ATP, the total amount of light generated by the reaction is proportional to the total amount of ATP that reflects cell viability. Cell line: NCI-N87 cell line (ATCC-CRL-5822), BT-474 cell line (ATCC-HTB-20), OE21 (ECACC-96062201) Cell culture medium: […] L-[…]×, Gibco#25030-081; penicillin-streptomycin Hyclone# SV30010) Cell Titer-Glo® cell viability assay kit with luminescence (Promega #G7573) 384-well cell culture plate (Greiner # 781090) Compound plate (LABCYTE # LP-0200) CO2 incubator (Thermo#371) Vi-cell cell counter (Beckman Coulter) According to the schematic diagram of the cell seed plate, cells were seeded in a 384- or 96-well plate at a density of 1000 cells per well and 25 μL per well, and 25 μL of PBS was added to the wells near edge of the place where no cells were seeded. (1) The stock solution of the compounds has a concentration of 10 mM, and the compounds were diluted with DMSO to an initial concentration of 4 mM. […] After 10 minutes, the plate was read on PerkinElmer Envision, and the […] reading time was set to 0.2 second.
# CYP1A2 = target: T1, CYP1A2 (Homo sapiens, UniProt P05177); assay: Inhibition of CYP enzyme activity in human liver microsome, CYP1A2; type: in vitro ADME; conditions: microsomes
# T1 construct: in the assay of CYP enzyme activity in human liver microsome; from tissue; host or cells: human liver microsome
# T1 sequence (P05177 1-516): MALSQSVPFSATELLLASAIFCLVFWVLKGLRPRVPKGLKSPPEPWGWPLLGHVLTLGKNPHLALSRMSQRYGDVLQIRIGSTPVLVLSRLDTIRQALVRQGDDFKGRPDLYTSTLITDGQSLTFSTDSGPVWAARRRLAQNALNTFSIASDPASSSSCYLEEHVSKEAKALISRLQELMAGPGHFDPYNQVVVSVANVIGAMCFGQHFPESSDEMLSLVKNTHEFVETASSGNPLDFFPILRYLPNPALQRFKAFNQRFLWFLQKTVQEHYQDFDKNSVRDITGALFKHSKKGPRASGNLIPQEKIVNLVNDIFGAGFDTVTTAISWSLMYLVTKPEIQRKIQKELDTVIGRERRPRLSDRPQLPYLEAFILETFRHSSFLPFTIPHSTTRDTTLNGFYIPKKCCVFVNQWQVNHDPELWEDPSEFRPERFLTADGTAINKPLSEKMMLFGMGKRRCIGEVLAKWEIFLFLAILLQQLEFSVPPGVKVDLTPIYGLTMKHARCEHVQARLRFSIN
# Text: (§1) The results of the compound disclosed herein and the reference compound Poziotinib in the assay of CYP enzyme activity in human liver microsome were shown in the following table (Table 17).
# [1] = tested on: subcutaneous xenograft tumor of human gastric cancer NCI-N87 cells; assay: In vivo pharmacodynamics, NCI-N87 subcutaneous xenograft (Assay Example 4); parameters: species or system mouse; conditions: 0.5 mg/kg, compared with the vehicle control group
# Description: Purpose of the assay: in vivo efficacy of the assay compound disclosed herein on subcutaneous xenograft tumor of human gastric cancer NCI-N87 cells in a BALB/c nude mouse model was evaluated.
# Animals of the assay: female BALB/c nude mice, 6-8 weeks old, weighted 18-22 grams; supplier: shanghai sippr bk laboratory animals Ltd.
# Human gastric cancer NCI-N87 cells were cultured in monolayer in vitro. The culture conditions were RPMI-1640 medium plus 10% fetal bovine serum, 100 U/mL penicillin, 100 μg/mL streptomycin, 37° C., 5% CO2. The passaging was performed by conventional digestion with trypsin-EDTA twice a week. When the cell saturation was 80%-90%, the cells were collected, counted and inoculated.
# 0.2 mL (10×10^6) of NCI-N87 cells (PBS+Matrigel, 1:1) were inoculated subcutaneously on the right back of each mouse. […]
# The assay index was to investigate whether tumor growth is inhibited, delayed or cured. Tumor diameter was measured twice a week with a vernier caliper. […]
# The antitumor efficacy of the compounds was evaluated by TGI (%) or tumor proliferation rate T/C (%). […]
# Statistical analysis included the mean and standard error of mean (SEM) of tumor volume at each time point in each group (See Table 14 for specific data). […] The comparison between groups was analyzed by T-test, and the comparison among three or more groups was analyzed by one-way ANOVA. […]
# CYP3A4 = target: T2, CYP3A4 (Homo sapiens, UniProt P08684); assay: Inhibition of CYP enzyme activity in human liver microsome, CYP3A4; type: in vitro ADME
# T2 construct: in the assay of CYP enzyme activity in human liver microsome; from tissue; host or cells: human liver microsome
# T2 sequence (P08684 whole entry): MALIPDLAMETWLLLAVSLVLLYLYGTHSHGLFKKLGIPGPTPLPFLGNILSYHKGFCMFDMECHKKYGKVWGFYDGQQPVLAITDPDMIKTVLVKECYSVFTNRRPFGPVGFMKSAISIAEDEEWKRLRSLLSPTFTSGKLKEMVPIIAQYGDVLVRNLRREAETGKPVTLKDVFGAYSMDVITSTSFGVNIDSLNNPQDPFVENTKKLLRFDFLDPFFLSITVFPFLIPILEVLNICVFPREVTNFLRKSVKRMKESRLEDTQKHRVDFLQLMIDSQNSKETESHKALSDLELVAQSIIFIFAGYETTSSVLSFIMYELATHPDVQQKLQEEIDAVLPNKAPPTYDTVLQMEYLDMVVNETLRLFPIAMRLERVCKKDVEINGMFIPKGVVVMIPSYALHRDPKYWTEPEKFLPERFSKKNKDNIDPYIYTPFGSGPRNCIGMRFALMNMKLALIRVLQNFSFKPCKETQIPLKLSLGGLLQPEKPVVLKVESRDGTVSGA
# Text: as §1
# CYP2C19 = target: T3, CYP2C19 (Homo sapiens, UniProt P33261); assay: Inhibition of CYP enzyme activity in human liver microsome, CYP2C19; type: in vitro ADME
# T3 construct: in the assay of CYP enzyme activity in human liver microsome; from tissue; host or cells: human liver microsome
# T3 sequence (P33261 whole entry): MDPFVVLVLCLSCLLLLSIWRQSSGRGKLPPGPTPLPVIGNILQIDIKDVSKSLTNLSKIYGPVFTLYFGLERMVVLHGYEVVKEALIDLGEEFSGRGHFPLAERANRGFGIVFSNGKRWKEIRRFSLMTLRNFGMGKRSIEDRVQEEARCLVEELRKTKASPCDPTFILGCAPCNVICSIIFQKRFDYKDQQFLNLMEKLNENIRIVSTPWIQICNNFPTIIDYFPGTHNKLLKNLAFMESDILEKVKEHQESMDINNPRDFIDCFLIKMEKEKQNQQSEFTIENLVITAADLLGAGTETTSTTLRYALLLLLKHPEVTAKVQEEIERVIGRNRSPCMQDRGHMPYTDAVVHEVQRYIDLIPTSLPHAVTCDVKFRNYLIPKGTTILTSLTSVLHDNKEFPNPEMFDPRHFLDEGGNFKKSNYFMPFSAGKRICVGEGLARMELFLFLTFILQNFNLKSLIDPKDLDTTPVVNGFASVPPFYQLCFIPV
# Text: as §1
structure (smiles),measurement,setting,value
C=CC(=O)N1[C@@H]2CC[C@H]1C[C@H](Nc1cc3c(Nc4ccc(Cl)c(Cl)c4F)ncnc3cc1OC)C2 [Compound of formula (I)],inhibitory activity on the proliferation of NCI-N87 cells (in words),NCI-N87 cell,significant inhibitory activity
same,inhibitory activity on CYP1A2 (in words),CYP1A2,no inhibitory activity
same,tumor inhibitory effect (in words),[1],significant tumor inhibitory effect
same,inhibitory activity on CYP3A4 (in words),CYP3A4,no inhibitory activity
same,inhibitory activity on CYP2C19 compared with Poziotinib (in words),CYP2C19,comparable to that of the reference compound Poziotinib
